Experiments:
Assay in all cases: relative viability (nuclei count vs DMSO), 5 days (fraction); higher = more cells survive
NCI-H358 = system: NCI-H358
Outline: (§1)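 For relative viability, nuclei counts in treated wells were divided by those in vehicle wells. Lung cancer cell lines had been pin-tool dosed in 1536-well plates the day after seeding and cultured for 5 days, then fixed and stained in one step (final 0.05% Triton X-100, 1% formaldehyde, 1 ug/ml Hoechst) and imaged at 4×. Doses were one drug alone or a fixed anchor-drug dose plus five library-drug doses (not always all listed) in √10 steps, and values are duplicate-plate medians.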

NCI-H1755 = system: NCI-H1755
Outline: as §1

LOU-NH91 = system: LOU-NH91
Outline: as §1

NCI-H1915 = system: NCI-H1915
Outline: as §1

A-427 = system: A-427
Outline: as §1

RERF-LC-KJ = system: RERF-LC-KJ
Outline: as §1

NCI-H2347 = system: NCI-H2347
Outline: as §1

NCI-H460 = system: NCI-H460
Outline: as §1

HCC-78 = system: HCC-78
Outline: as §1

NCI-H2126 = system: NCI-H2126
Outline: as §1

NCI-H1975 = system: NCI-H1975
Outline: as §1

HOP-62 = system: HOP-62
Outline: as §1

SK-LU-1 = system: SK-LU-1
Outline: as §1

NCI-H647 = system: NCI-H647
Outline: as §1

LC-2-ad = system: LC-2-ad
Outline: as §1

NCI-H1792 = system: NCI-H1792
Outline: as §1

NCI-H2228 = system: NCI-H2228
Outline: as §1

SW 1573 = system: SW 1573
Outline: as §1

NCI-H1734 = system: NCI-H1734
Outline: as §1

LXF-289 = system: LXF-289
Outline: as §1

HCC-15 = system: HCC-15
Outline: as §1

PC-3 [JPC-3] = system: PC-3 [JPC-3]
Outline: as §1

`O=C(O)c1ccc(-c2c[nH]c3ncc(-c4ccccc4)cc23)cc1C1CCCC1` + CS(=O)(=O)N1CCN(Cc2cc3nc(-c4cccc5[nH]ncc45)nc(N4CCOCC4)c3s2)CC1 [Pictilisib] (partner 1 µM) gave a relative viability (NCI-H358; first compound 0.04 µM) of 0.39, a relative viability (NCI-H358; first compound 0.1265 µM) of 0.364 and a relative viability (NCI-H358; first compound 0.4 µM) of 0.371. The relative viability (NCI-H358; first compound 1.265 µM) was 0.255, the relative viability (NCI-H1755; first compound 0.04 µM) was 0.381 and the relative viability (NCI-H1755; first compound 0.1265 µM) was 0.603. The relative viability (NCI-H1755; first compound 0.4 µM) was 0.45, the relative viability (NCI-H1755; first compound 1.265 µM) was 0.442 and the relative viability (LOU-NH91; first compound 0.04 µM) was 0.513. It also gave a relative viability (LOU-NH91; first compound 0.1265 µM) of 0.517, a relative viability (LOU-NH91; first compound 0.4 µM) of 0.512 and a relative viability (LOU-NH91; first compound 1.265 µM) of 0.52. The relative viability (NCI-H1915; first compound 0.04 µM) was 0.992, the relative viability (NCI-H1915; first compound 0.1265 µM) was 0.876 and the relative viability (NCI-H1915; first compound 0.4 µM) was 0.94. For the same compound, the relative viability (NCI-H1915; first compound 1.265 µM) was 0.803, the relative viability (A-427; first compound 0.04 µM) was 0.836 and the relative viability (A-427; first compound 0.1265 µM) was 0.738. For the same compound, the relative viability (A-427; first compound 0.4 µM) was 0.723, the relative viability (A-427; first compound 1.265 µM) was 0.738 and the relative viability (RERF-LC-KJ; first compound 0.04 µM) was 0.487. It also gave a relative viability (RERF-LC-KJ; first compound 0.1265 µM) of 0.594, a relative viability (RERF-LC-KJ; first compound 0.4 µM) of 0.503 and a relative viability (RERF-LC-KJ; first compound 1.265 µM) of 0.501. For the same compound, the relative viability (NCI-H2347; first compound 0.04 µM) was 0.622, the relative viability (NCI-H2347; first compound 0.1265 µM) was 0.789 and the relative viability (NCI-H2347; first compound 0.4 µM) was 0.621. For the same compound, the relative viability (NCI-H2347; first compound 1.265 µM) was 0.75, the relative viability (NCI-H460; first compound 0.04 µM) was 0.409 and the relative viability (NCI-H460; first compound 0.1265 µM) was 0.574. It also gave a relative viability (NCI-H460; first compound 0.4 µM) of 0.38, a relative viability (NCI-H460; first compound 1.265 µM) of 0.365 and a relative viability (HCC-78; first compound 0.04 µM) of 0.231. It also gave a relative viability (HCC-78; first compound 0.1265 µM) of 0.263, a relative viability (HCC-78; first compound 0.4 µM) of 0.179 and a relative viability (HCC-78; first compound 1.265 µM) of 0.168. The relative viability (NCI-H2126; first compound 0.04 µM) was 0.551, the relative viability (NCI-H2126; first compound 0.1265 µM) was 0.486 and the relative viability (NCI-H2126; first compound 0.4 µM) was 0.497. For the same compound, the relative viability (NCI-H2126; first compound 1.265 µM) was 0.46, the relative viability (NCI-H1975; first compound 0.04 µM) was 0.256 and the relative viability (NCI-H1975; first compound 0.1265 µM) was 0.297. It also gave a relative viability (NCI-H1975; first compound 0.4 µM) of 0.309, a relative viability (NCI-H1975; first compound 1.265 µM) of 0.271 and a relative viability (HOP-62; first compound 0.04 µM) of 1.05. It also gave a relative viability (HOP-62; first compound 0.1265 µM) of 0.884, a relative viability (HOP-62; first compound 0.4 µM) of 0.686 and a relative viability (HOP-62; first compound 1.265 µM) of 0.66. It also gave a relative viability (SK-LU-1; first compound 0.04 µM) of 0.559, a relative viability (SK-LU-1; first compound 0.1265 µM) of 0.604 and a relative viability (SK-LU-1; first compound 0.4 µM) of 0.538. It also gave a relative viability (SK-LU-1; first compound 1.265 µM) of 0.418, a relative viability (NCI-H647; first compound 0.04 µM) of 0.418 and a relative viability (NCI-H647; first compound 0.1265 µM) of 0.38. For the same compound, the relative viability (NCI-H647; first compound 0.4 µM) was 0.478, the relative viability (NCI-H647; first compound 1.265 µM) was 0.344 and the relative viability (LC-2-ad; first compound 0.04 µM) was 0.48. It also gave a relative viability (LC-2-ad; first compound 0.1265 µM) of 0.46, a relative viability (LC-2-ad; first compound 0.4 µM) of 0.462 and a relative viability (LC-2-ad; first compound 1.265 µM) of 0.351. The relative viability (NCI-H1792; first compound 0.04 µM) was 0.287, the relative viability (NCI-H1792; first compound 0.1265 µM) was 0.311 and the relative viability (NCI-H1792; first compound 0.4 µM) was 0.329. It also gave a relative viability (NCI-H1792; first compound 1.265 µM) of 0.27, a relative viability (NCI-H2228; first compound 0.04 µM) of 0.58 and a relative viability (NCI-H2228; first compound 0.1265 µM) of 0.549. It also gave a relative viability (NCI-H2228; first compound 0.4 µM) of 0.26, a relative viability (NCI-H2228; first compound 1.265 µM) of 0.274 and a relative viability (SW 1573; first compound 0.04 µM) of 0.638. It also gave a relative viability (SW 1573; first compound 0.1265 µM) of 0.621, a relative viability (SW 1573; first compound 0.4 µM) of 0.512 and a relative viability (SW 1573; first compound 1.265 µM) of 0.317. It also gave a relative viability (NCI-H1734; first compound 0.04 µM) of 0.429, a relative viability (NCI-H1734; first compound 0.1265 µM) of 0.556 and a relative viability (NCI-H1734; first compound 0.4 µM) of 0.445. It also gave a relative viability (NCI-H1734; first compound 1.265 µM) of 0.419, a relative viability (LXF-289; first compound 0.04 µM) of 0.762 and a relative viability (LXF-289; first compound 0.1265 µM) of 0.869. It also gave a relative viability (LXF-289; first compound 0.4 µM) of 0.645, a relative viability (LXF-289; first compound 1.265 µM) of 0.404 and a relative viability (HCC-15; first compound 0.04 µM) of 0.736. For the same compound, the relative viability (HCC-15; first compound 0.1265 µM) was 0.839, the relative viability (HCC-15; first compound 0.4 µM) was 0.755 and the relative viability (HCC-15; first compound 1.265 µM) was 0.514. It also gave a relative viability (PC-3 [JPC-3]; first compound 0.04 µM) of 0.784, a relative viability (PC-3 [JPC-3]; first compound 0.1265 µM) of 0.799 and a relative viability (PC-3 [JPC-3]; first compound 0.4 µM) of 0.757. For the same compound, the relative viability (PC-3 [JPC-3]; first compound 1.265 µM) was 0.768.
